Assay results as given in PMC4398638 (Bioorganic & medicinal chemistry, 2015).

Test system: WI-38 human lung fibroblasts (normal) cell line (FR−)
Experiment: MTT cytotoxicity assay, WI-38 cells
Type: cell-based
Conditions: normal (WI-38, FR−) cells versus FR-overexpressing cancer cells / free drug

CC(=O)O[C@@]12CO[C@@H]1C[C@H](O)[C@@]1(C)C(=O)[C@H](OC(=O)C3CC3)C3=C(C)[C@@H](OC(=O)[C@H](OC(=O)Cc4ccccc4SSC(C)CCC(=O)NCCCOCCOCCOCCCNC(=O)c4ccc(CC5CCCCCc6c5nnn6CCOCCOCCOCCNC(=O)CC[C@H](NC(=O)CC[C@H](NC(=O)c5ccc(NCc6cnc7nc(N)[nH]c(=O)c7n6)cc5)C(=O)O)C(=O)N[C@@H](CCCNC(=N)N)C(=O)O)cc4)[C@H](C=C(C)C)NC(=O)OC(C)(C)C)C[C@@](O)([C@@H](OC(=O)c4ccccc4)[C@H]21)C3(C)C (stereo partly shown) [Conjugate 1]
decrease in cytotoxicity against normal human cells: > 1,000 fold
